According to PubChem BioAssay (NCI):
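Cultured in 96-well plates, cells were exposed to test compound for 48 hours across five concentrations. TGI is the concentration that stops growth completely.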

Key:
Assay in all cases: NCI tumour cell line growth inhibition, 48 h
786-0 renal = tested on: 786-0 renal
A498 renal = tested on: A498 renal
A549 NSCLC = tested on: A549 NSCLC
ACHN renal = tested on: ACHN renal
CAKI-1 renal = tested on: CAKI-1 renal
CCRF-CEM leukemia = tested on: CCRF-CEM leukemia
COLO 205 colon = tested on: COLO 205 colon
DU-145 prostate = tested on: DU-145 prostate
EKVX NSCLC = tested on: EKVX NSCLC
HCC-2998 colon = tested on: HCC-2998 colon
HCT-116 colon = tested on: HCT-116 colon
HCT-15 colon = tested on: HCT-15 colon
HL-60(TB) leukemia = tested on: HL-60(TB) leukemia
HOP-62 NSCLC = tested on: HOP-62 NSCLC
HOP-92 NSCLC = tested on: HOP-92 NSCLC
HS 578T breast = tested on: HS 578T breast
HT29 colon = tested on: HT29 colon
K-562 leukemia = tested on: K-562 leukemia
KM12 colon = tested on: KM12 colon
LOX IMVI melanoma = tested on: LOX IMVI melanoma
M14 melanoma = tested on: M14 melanoma
MALME-3M melanoma = tested on: MALME-3M melanoma
MCF7 breast = tested on: MCF7 breast
MDA-MB-231 breast = tested on: MDA-MB-231 breast
MDA-MB-435 = tested on: MDA-MB-435
MDA-N = tested on: MDA-N
MOLT-4 leukemia = tested on: MOLT-4 leukemia
NCI-H226 lung = tested on: NCI-H226 lung
NCI-H23 lung = tested on: NCI-H23 lung
NCI-H460 lung = tested on: NCI-H460 lung
NCI-H522 lung = tested on: NCI-H522 lung
NCI/ADR-RES ovarian = tested on: NCI/ADR-RES ovarian
OVCAR-3 ovarian = tested on: OVCAR-3 ovarian
OVCAR-5 ovarian = tested on: OVCAR-5 ovarian
OVCAR-8 ovarian = tested on: OVCAR-8 ovarian
PC-3 prostate = tested on: PC-3 prostate
RPMI-8226 leukemia = tested on: RPMI-8226 leukemia
RXF 393 renal = tested on: RXF 393 renal
SF-268 CNS = tested on: SF-268 CNS
SF-295 CNS = tested on: SF-295 CNS
SF-539 CNS = tested on: SF-539 CNS
SK-MEL-28 melanoma = tested on: SK-MEL-28 melanoma
SK-MEL-5 melanoma = tested on: SK-MEL-5 melanoma
SK-OV-3 ovarian = tested on: SK-OV-3 ovarian
SN12C renal = tested on: SN12C renal
SNB-19 CNS = tested on: SNB-19 CNS
SR leukemia = tested on: SR leukemia
SW-620 colon = tested on: SW-620 colon
T-47D breast = tested on: T-47D breast
TK-10 renal = tested on: TK-10 renal
U251 CNS = tested on: U251 CNS
UACC-257 melanoma = tested on: UACC-257 melanoma
UACC-62 melanoma = tested on: UACC-62 melanoma
UO-31 renal = tested on: UO-31 renal

Which TGI (786-0 renal) does the source give for O=C1Nc2ccc(Br)cc2C1=Nc1ccc(Cl)cc1 here?
The TGI was > 100 µM.

And the TGI (A498 renal)?
The TGI was > 100 µM.

And the TGI (A549 NSCLC)?
Its TGI is > 100 µM.

What about the TGI (ACHN renal) of the same compound?
Its TGI is 39.1 µM.

What about the TGI (CAKI-1 renal) of the same compound?
The TGI was > 100 µM.

And the TGI (CCRF-CEM leukemia)?
Its TGI is 51.9 µM.

And the TGI (COLO 205 colon)?
The TGI was 4.71 µM.

And the TGI (DU-145 prostate)?
The TGI was > 100 µM.

And the TGI (EKVX NSCLC)?
The TGI was 47.1 µM.

And the TGI (HCC-2998 colon)?
Its TGI is 39.7 µM.

And the TGI (HCT-116 colon)?
Its TGI is 62.9 µM.

What about the TGI (HCT-15 colon) of the same compound?
The TGI was 36.8 µM.

What about the TGI (HL-60(TB) leukemia) of the same compound?
The TGI was 39 µM.

What about the TGI (HOP-62 NSCLC) of the same compound?
The TGI was 52.1 µM.

And the TGI (HOP-92 NSCLC)?
Its TGI is > 100 µM.

And the TGI (HS 578T breast)?
The TGI was > 100 µM.

What about the TGI (HT29 colon) of the same compound?
Its TGI is 38.5 µM.

What about the TGI (K-562 leukemia) of the same compound?
The TGI was 73.3 µM.

And the TGI (KM12 colon)?
The TGI was 24.8 µM.

What about the TGI (LOX IMVI melanoma) of the same compound?
The TGI was 31.8 µM.

And the TGI (M14 melanoma)?
Its TGI is 72.2 µM.

What about the TGI (MALME-3M melanoma) of the same compound?
The TGI was 48.5 µM.

And the TGI (MCF7 breast)?
The TGI was 27.1 µM.

And the TGI (MDA-MB-231 breast)?
Its TGI is 45.9 µM.

And the TGI (MDA-MB-435)?
Its TGI is 20.6 µM.

And the TGI (MDA-N)?
Its TGI is 23.5 µM.

And the TGI (MOLT-4 leukemia)?
The TGI was > 100 µM.

And the TGI (NCI-H226 lung)?
The TGI was 58.8 µM.

What about the TGI (NCI-H23 lung) of the same compound?
The TGI was > 100 µM.

What about the TGI (NCI-H460 lung) of the same compound?
The TGI was > 100 µM.

What about the TGI (NCI-H522 lung) of the same compound?
Its TGI is 24.6 µM.

What about the TGI (NCI/ADR-RES ovarian) of the same compound?
The TGI was 62.3 µM.

And the TGI (OVCAR-3 ovarian)?
Its TGI is 40 µM.

And the TGI (OVCAR-5 ovarian)?
The TGI was 39.8 µM.

What about the TGI (OVCAR-8 ovarian) of the same compound?
The TGI was 26.7 µM.

What about the TGI (PC-3 prostate) of the same compound?
The TGI was > 100 µM.

And the TGI (RPMI-8226 leukemia)?
The TGI was 26.5 µM.

And the TGI (RXF 393 renal)?
Its TGI is 40.1 µM.

And the TGI (SF-268 CNS)?
Its TGI is 55.8 µM.

And the TGI (SF-295 CNS)?
The TGI was 89.2 µM.

What about the TGI (SF-539 CNS) of the same compound?
The TGI was 19.4 µM.

What about the TGI (SK-MEL-28 melanoma) of the same compound?
The TGI was 82.5 µM.

And the TGI (SK-MEL-5 melanoma)?
Its TGI is 20.1 µM.

What about the TGI (SK-OV-3 ovarian) of the same compound?
The TGI was > 100 µM.

And the TGI (SN12C renal)?
Its TGI is 31.2 µM.

What about the TGI (SNB-19 CNS) of the same compound?
The TGI was 97 µM.

And the TGI (SR leukemia)?
The TGI was > 100 µM.

And the TGI (SW-620 colon)?
Its TGI is 32.5 µM.

What about the TGI (T-47D breast) of the same compound?
Its TGI is > 100 µM.

What about the TGI (TK-10 renal) of the same compound?
The TGI was 51.4 µM.

And the TGI (U251 CNS)?
The TGI was 88.8 µM.

And the TGI (UACC-257 melanoma)?
Its TGI is 79.1 µM.

What about the TGI (UACC-62 melanoma) of the same compound?
Its TGI is 12.6 µM.

What about the TGI (UO-31 renal) of the same compound?
Its TGI is 28.9 µM.
